How the values were obtained:
[1] = molecular target: T1, récepteurs de la parathyroïde (Rattus norvegicus, UniProt P48442); details: experimental trials in the rat; cited from earlier work
T1 construct: from tissue; host or cells: rat parathyroid gland (in vivo)
T1 sequence (P48442 20-1079): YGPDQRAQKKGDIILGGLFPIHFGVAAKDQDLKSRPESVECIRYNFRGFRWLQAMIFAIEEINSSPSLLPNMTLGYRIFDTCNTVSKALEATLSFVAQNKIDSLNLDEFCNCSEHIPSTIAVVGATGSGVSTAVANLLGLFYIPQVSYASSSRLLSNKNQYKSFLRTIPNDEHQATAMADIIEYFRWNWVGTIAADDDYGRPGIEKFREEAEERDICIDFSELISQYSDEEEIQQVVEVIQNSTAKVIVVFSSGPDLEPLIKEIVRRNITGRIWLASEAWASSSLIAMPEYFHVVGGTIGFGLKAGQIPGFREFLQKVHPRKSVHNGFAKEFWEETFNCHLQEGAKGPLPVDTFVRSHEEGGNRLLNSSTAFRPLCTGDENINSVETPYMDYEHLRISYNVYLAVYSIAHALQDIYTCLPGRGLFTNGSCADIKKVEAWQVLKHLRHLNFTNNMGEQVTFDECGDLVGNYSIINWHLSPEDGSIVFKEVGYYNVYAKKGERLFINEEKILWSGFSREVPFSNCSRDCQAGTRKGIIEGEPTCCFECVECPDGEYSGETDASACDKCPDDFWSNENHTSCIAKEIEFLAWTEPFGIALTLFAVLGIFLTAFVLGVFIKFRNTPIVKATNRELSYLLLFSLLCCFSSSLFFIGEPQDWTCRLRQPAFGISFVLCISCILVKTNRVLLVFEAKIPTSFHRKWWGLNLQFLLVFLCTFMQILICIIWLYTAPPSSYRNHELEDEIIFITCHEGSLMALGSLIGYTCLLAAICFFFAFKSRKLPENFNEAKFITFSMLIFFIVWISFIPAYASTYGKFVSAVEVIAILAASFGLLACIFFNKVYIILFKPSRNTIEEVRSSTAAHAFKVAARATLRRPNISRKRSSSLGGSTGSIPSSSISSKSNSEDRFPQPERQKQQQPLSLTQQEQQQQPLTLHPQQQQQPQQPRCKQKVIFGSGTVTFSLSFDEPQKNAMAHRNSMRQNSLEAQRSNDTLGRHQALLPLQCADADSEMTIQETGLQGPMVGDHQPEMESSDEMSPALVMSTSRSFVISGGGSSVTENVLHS

[2] = tested on: PTH; details: oral route, postmenopausal women with primary hyperparathyroidism (Silverberg et al, 1997); cited from earlier work
[3] = molecular target: T2, CaSR de rat (Rattus norvegicus, UniProt P48442); assay: Accumulation of tritiated inositol phosphates ([3H]IP) in transfected CHO(CaSR) cells; assay type: cell-based; details: compound 10 µM
T2 construct: expressed in transfected cells; host or cells: CHO (Chinese hamster ovary) cells, line CHO(CaSR)
T2 sequence (P48442 20-1079): T1 sequence (P48442 20-1079)
Description: L'ADN complémentaire codant pour le CaSR de rat a été isolé à partir d'une banque ADNc de striatum de rat (Ruat et al, Proc. Natl. Acad. Sci., 1995). Ce récepteur est identique au niveau de sa séquence en acides aminés à celui exprimé dans les autres tissus. Des cellules ovariennes de hamster chinois (CHO) transfectées exprimant le CaSR de rat (CHO(CaSR)) ont été caractérisées et les signaux chimiques (seconds messagers) induits par l'activation de ce récepteur ont été analysés. Ainsi, un test biochimique permettant de mesurer l'accumulation d'inositols phosphates tritiés [^3H]IP en réponse à l'activation du récepteur a été mis au point (Ruat et al, J. Biol. Chem., 1996; Ferry et al, Biochem. Biophys. Res. Commun., 1997).
L'activité calcimimétique des composés a été estimée en mesurant l'accumulation d'inositols phosphates tritiés induite par 10 µM de chacun des composés en présence de 2 mM de Ca^2+ dans les cellules CHO(CaSR) (Ferry et al, Biochem Biophys Res Commun, 1997).
Cette activation a été comparée à celle induite par le composé NPS-R- 568, un calcimimétique de référence et utilisé à une concentration de 10 µM (Tableau 1) (Ferry et al, Biochem Biophys Res Commun, 1997; Nemeth et al, Proc Natl Acad Sci USA, 1997).
Dans le tableau 1, l'activité calcimimétique des composés PHD est comparée à celle d'un composé de référence, le NPS-R-568 utilisé à la même concentration et dans les mêmes conditions expérimentales. Cette activité est exprimée en pourcentage de l'activité de 10 mM de Ca^2+. Les moyennes ± erreurs standards de 2 à 5 manipulations indépendantes sont indiquées. Les expériences ont été réalisées en présence de 2 mM de Ca^2+.
(§1) L'accumulation d'inositols phosphates tritiés est exprimée en pourcentage du taux de base observé en présence de 2 mM Ca^2+ (100 %) dans les cellules CHO(WT*) ou CHO(CaSR).

[4] = tested on: cellules CHO(WT*); assay: Specificity control: [3H]IP accumulation in CHO(WT*) control cells transfected with the plasmid alone, not expressing CaSR; assay type: cell-based, hamster chinois; details: compound 10 µM, basal level in presence of 2 mM Ca^2+ = 100 %
Description: Les molécules PHD, utilisées à une concentration de 10 µM ne conduisent pas ou peu à l'accumulation d'[^3H]IP dans des cellules CHO(WT*) témoins ce qui suggère leur spécificité d'action vis-à-vis du CaSR (Tableau 2). Les cellules CHO(WT*) ont été tranfectées avec le plasmide seul et n'expriment pas le CaSR.
as §1

[5] = tested on: ostéitis fibrosa; details: rat (Wada et al, Kidney International, 1998); cited from earlier work
[6] = tested on: glande parathyroïdienne; details: rat model of chronic renal failure (Wada et al, J. Clin. Invest., 1997); cited from earlier work
[7] = clinical trials Phase I - II, NPS Pharmaceutical (Nemeth et al, 1999); cited from earlier work
[8] = tested on: PTH; details: male patients with chronic renal failure (Antansen et al, Kidney International, 1998); cited from earlier work

For COc1cccc([C@@H](C)NCCCc2ccccc2)c1 [NPS R-467], the “sélectivité vis à vis des récepteurs de la parathyroïde comparativement à ceux de la glande thyroïde” value [1] is listed as “plus sélectif”.
For COc1cccc([C@@H](C)NCCCc2ccccc2Cl)c1 [NPS R-568, reference compound], the “concentrations de PTH et des ions Ca^2+ libres sériques” value [2] is listed as “abaisser”, the “Accumulation d'(^3H)-IP % du taux basal. CHO (CaSR)” value ([3]; basal level in presence of 2 mM Ca^2+ = 100 %) is listed as “une forte accumulation” and the activity at 10 µM ([3]; basal level in presence of 2 mM Ca^2+ = 100 %, read-out: Accumulation d'(^3H)-IP % du taux basal. CHO (CaSR)) is listed as 454 ± 33%. The “Accumulation d'(^3H)-IP % de la réponse 10mM Ca^2+ ± E.S.” value ([3]; in presence of 2 mM Ca^2+, mean ± standard error of 2 to 5 independent experiments) was 106 ± 15%, the activation at 10 µM ([3]; in presence of 2 mM Ca^2+, mean ± standard error of 2 to 5 independent experiments, read-out: Accumulation d'(^3H)-IP % de la réponse 10mM Ca^2+ ± E.S.) was 100% and the “Accumulation d'(^3H)-IP % du taux basal. CHO (WT*)” value [4] was “peu ou pas d'accumulation”. The activity at 10 µM ([4]; read-out: Accumulation d'(^3H)-IP % du taux basal. CHO (WT*)) was 119 ± 9%, the ostéitis fibrosa [5] was “réduit ou élimine” and the “réduire la prolifération cellulaire observée dans la glande parathyroïdienne” value [6] was 20-50%. The bio-disponibilité [7] was “faible” and the “concentrations de PTH” value [8] was “réduit”.

Source: patent EP1235797B1, “ARALKYL-1,2-DIAMINES HAVING CALCIMIMETIC ACTIVITY AND PREPARATION MODE” (CENTRE NATIONAL DE LA RECHERCHE SCIENTIFIQUE (CNRS), priority 1999, dated 2001)
